How the values were obtained:
Assay type in all cases: cell-based
[1] = system: YAP/TAZ-TEAD transcription; test: Reporter gene assay for measuring the inhibition of YAP/TAZ-TEAD transcription (TEAD-responsive element luciferase reporter in Hek293T cells); settings: 24 hours incubation
Outline: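 HEK293T cells transiently transfected with a TEAD-responsive luciferase reporter were exposed to compounds for 24 h at 37° C/5% CO2, then luminescence was read. Percent inhibition normalised to vehicle (0%) and positive-control inhibitor (100%); IC50 derived.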

[2] = system: NCI-H226 mesothelioma cell line; test: Mesothelioma cell line proliferation assay, NCI-H226 (ATPlite); settings: NCI-H226 cells, 6 days with compound, cell viability by ATPlite
Experimental: (§1) Example 57: Activity of Compounds of the Disclosure in Mesothelioma Cell Line Proliferation Assays
(§2) Mesothelioma cell lines, NCI-H226 and NCI-H2052 (both sourced from the ATCC cell culture collection) were plated in 96-well plates (Corning® 96 Well White Polystyrene Microplate clear flat bottom, white polystyrene (TC-Treated)), at 1500 cells/well in full medium (RPMI 1640 ATCC modification with L-glutamine, HEPES, Phenol Red, Sodium Pyruvate, High glucose, Low sodium bicarbonate and 10% fetal bovine serum). Cells were incubated overnight at 37° C. in an incubator with 5% CO2. Then compounds, dissolved in DMSO, were added in dose-response. Cells were incubated with compound dilutions for another 6 days at 37° C. in an incubator with 5% CO2. Cell viability was quantitated using the ATPlite kit (Perkin-Elmer) and the luminescence was read-out using an Envision instrument (Perkin-Elmer). The amount of relative light units produced using the ATPlite kit was used to calculate percent of inhibition.
(§3) The activities of some example compounds are depicted in Table 4. The activity ranges A, B and C refer to EC50 values in the mesothelioma cell line proliferation assay as described as follows: “A”: EC50<1 μM; “B”: 1 μM≤EC50≤10 μM and “C”: EC50>10 μM; NT: not tested.

[3] = system: NCI-H2052 mesothelioma cell line; test: Mesothelioma cell line proliferation assay, NCI-H2052 (ATPlite); settings: NCI-H2052 cells, 6 days with compound, cell viability by ATPlite
Experimental: as §1, §2, §3

IC50 ([1]; Homo sapiens, HEK-293T, 24 h) [nM] | EC50 ([2]; Homo sapiens, 144 h) [nM] | EC50 ([3]; Homo sapiens, 144 h) [nM] | IC50 [1] [nM] | EC50 [2] [nM] | EC50 [3] [nM] | SMILES
< 1000 | < 1000 | < 1000 | – | – | – | O=C(O)C1(F)CCN2c3ccccc3N(c3ccc(C(F)(F)F)cc3)CC2C1 [123-D1, (6aS,8S)- or (6aR,8S)- or (6aR,8R)- or (6aS,8R)-8-fluoro-5-(4-(trifluoromethyl)phenyl)-6,6a,7,8,9,10-hexahydro-5H-pyrido[1,2-a]quinoxaline-8-carboxylic acid]
– | < 1000 | < 1000 | < 1000 | – | – | CC(=O)N1CCN2c3ncccc3N(c3ccc(C(F)(F)F)cn3)CC2C1 (stereo not drawn) [53-En1, 1-(5-(5-(trifluoromethyl)pyridin-2-yl)-5,6,6a,7,9,10-hexahydro-8H-pyrazino[1,2-a]pyrido[3,2-e]pyrazin-8-yl)ethan-1-one]
– | – | – | < 1000 | < 1000 | < 1000 | Cc1ccc2c(n1)N1CCC(C(=O)O)CC1CN2c1ccc(C(F)(F)F)cc1 [101-D4, (6aS,8S)— or (6aR,8S)— or (6aR,8R)— or (6aS,8R)-2-methyl-5-(4-(trifluoromethyl)phenyl)-6,6a,7,8,9,10-hexahydro-5H-dipyrido[1,2-a:3′,2′-e]pyrazine-8-carboxylic acid]
< 1000 | < 1000 | < 1000 | – | – | – | CC(=O)N1CCN2c3ccccc3N(c3ccc(C(F)(F)F)cc3)CC2C1 (stereo not drawn) [compound 15, 1-(6-(4-(trifluoromethyl)phenyl)-1,2,4,4a,5,6-hexahydro-3H-pyrazino[1,2-a]quinoxalin-3-yl)ethan-1-one]
< 1000 | < 1000 | < 1000 | – | – | – | C=CC(=O)N1CCN2C(=O)CN(c3ccc(C(F)(F)F)cc3)CC2C1 (stereo not drawn) [compound 37, 8-acryloyl-2-(4-(trifluoromethyl)phenyl)octahydro-4H-pyrazino[1,2-a]pyrazin-4-one]

Second part, the compound before the results:

SMILES | IC50 ([1]; Homo sapiens, HEK-293T, 24 h) [nM] | EC50 ([2]; Homo sapiens, 144 h) [nM] | EC50 ([3]; Homo sapiens, 144 h) [nM] | IC50 [1] [nM] | EC50 [2] [nM] | EC50 [3] [nM]
C=CC(=O)NCC1CN(c2ccc(C(F)(F)F)cc2)c2ccccc2N1CCC(N)=O (stereo not drawn) [compound 13, N-((1-(3-amino-3-oxopropyl)-4-(4-(trifluoromethyl)phenyl)-1,2,3,4-tetrahydroquinoxalin-2-yl)methyl)acrylamide] | < 1000 | < 1000 | < 1000 | – | – | –
CS(=O)(=O)N[C@@H]1C[C@@H]2CN(c3ccc(C(F)(F)F)cc3)c3cccnc3N2C1 [compound 85, N-((6aR,8R)-5-(4-(trifluoromethyl)phenyl)-5,6,6a,7,8,9-hexahydropyrido[3,2-e]pyrrolo[1,2-a]pyrazin-8-yl)methanesulfonamide] | < 1000 | 1000 to 10000 | > 10000 | – | – | –
CNS(=O)(=O)N[C@@H]1C[C@@H]2CN(c3ccc(C(F)(F)F)cc3)c3cccnc3N2C1 [compound 86, N-((6aR,8R)-5-(4-(trifluoromethyl)phenyl)-5,6,6a,7,8,9-hexahydropyrido[3,2-e]pyrrolo[1,2-a]pyrazin-8-yl), N′-methylsulfuric diamide] | < 1000 | 1000 to 10000 | > 10000 | – | – | –
CC(=O)NCC1CN(c2ccc(C(F)(F)F)cc2)c2ccccc2O1 (stereo not drawn) [compound 36, N-((4-(4-(trifluoromethyl)phenyl)-3,4-dihydro-2H-benzo[b][1,4]oxazin-2-yl)methyl)acetamide] | < 1000 | < 1000 | < 1000 | – | – | –
C=CC(=O)NCC1CN(c2ccc(C(F)(F)F)cc2)c2cccnc2N1C (single isomer, unassigned) [27-En1] | < 1000 | < 1000 | < 1000 | – | – | –
C=CC(=O)NCC1CN(c2ccc(C(F)(F)F)cc2)c2ccccc2N1CC#N (stereo not drawn) [compound 3, N-((1-(cyanomethyl)-4-(4-(trifluoromethyl)phenyl)-1,2,3,4-tetrahydroquinoxalin-2-yl)methyl)acrylamide] | < 1000 | < 1000 | < 1000 | – | – | –
